Measurements: patent publication US20100055071A1, “Anti-Viral Compounds” (priority 2006, published 2010)

System: HCV replication in ET (Huh-lucubineo-ET) cell line
Assay: Replicon Assay (HCV replicon luciferase, ET cell line)
Type: cell-based
Conditions: Hepatitis C virus; tested at 10 μM; ET (Huh-lucubineo-ET) replicon cells; luciferase activity measured 48-72 hours later; relative to no compound control
Protocol: A cell line, ET (Huh-lucubineo-ET) was used for screening of compounds of the present invention for inhibiting HCV replication. The ET cell line was stably transfected with RNA transcripts harboring a I389luc-ubi-neo/NS3-3′/ET; replicon with firefly luciferase-ubiquitin-neomycin phosphotransferase fusion protein and EMCV-IRES driven NS3-5B polyprotein containing the cell culture adaptive mutations (E1202G; T1280I; K1846T) (Krieger at al, 2001 and unpublished). The ET cells were grown in DMEM (Dulbeco's Modified Eagle's Medium), supplemented with 10% fetal calf serum, 2 mM Glutamine, Penicillin (100 IU/mL)/Streptomycin (100 μg/mL), 1× nonessential amino acids, and 250 μg/mL G418 (“Geneticin”). They were all available through Life Technologies (Bethesda, Md.). The cells were plated at 0.5-1.0×10^4 cells/well in the 96 well plates and incubated for 24 hrs before adding testing compounds. Then the compounds were added to the cells to achieve a final concentration of 0.1 nM to 50 μM and a final DMSO concentration of 0.5%. Luciferase activity were measured 48-72 hours later by adding a lysis buffer and the substrate (Catalog number Glo-lysis buffer E2661 and Bright-Glo luciferase system E2620 Promega, Madison, Wis.). Cells should not be too confluent during the assay. Percent inhibition of replication was plotted relative to no compound control. Under the same condition, cytotoxicity of the compounds was determined using cell proliferation reagent, WST-1 (Roche, Germany). The compounds showing antiviral activities, but no significant cytotoxicities were chosen to determine EC50 and TC50. For these determinations, a 10 point 2-fold serial dilution for each compound was used, which spans a concentration range of 1000 fold. EC50 and similarly TC50 values were calculated by fitting % inhibition at each concentration to the following equation:
% inhibition=100%/[(IC50/[I])^b+1]
where b is Hill's coefficient.
In some preferred embodiments compounds of Formula I will have a % inhibition of at least 20% when tested at 10 μM. In other embodiments the compounds of Formula I will have a % inhibition of at least 50% when tested at 10 μM.

SMILES | inhibition at 10 µM [%]
O=C(NCc1ccc(-c2ccc3nc([C@@H]4CCCN4C(=O)OCc4ccccc4)[nH]c3c2)cc1)C1CC1 [Compound 4038, (S)-2-(6-{4-[(Cyclopropanecarbonyl-amino)-methyl]-phenyl}-1H-benzoimidazol-2-yl)-pyrrolidine-1-carboxylic acid benzyl ester] | 97
O=C(Nc1cccc(-c2ccc([C@@H]3CCCN3C(=O)OCc3ccccc3)cc2)c1)C1CC1 (stereo in doubt) [Compound 4009, 2-[3′-(Cyclopropanecarbonyl-amino)-biphenyl-4-yl]-pyrrolidine-1-carboxylic acid benzyl ester] | 31.7
O=C(Nc1ccc(-c2ccc3nc([C@@H]4CCCN4C(=O)OCc4ccccc4)[nH]c3c2)cc1)C1CC1 [Compound 4058, (S)-2-{6-[4-(Cyclopropanecarbonyl-amino)-phenyl]-1H-benzoimidazol-2-yl}-pyrrolidine-1-carboxylic acid benzyl ester] | 97.9
O=C(NC1CC1)c1ccc(-c2ccc3[nH]c([C@@H]4CSC(c5ccncc5)N4C(=O)OCc4ccccc4)nc3c2)cc1 (stereo in doubt) [Compound 4006, (S)-4-[5-(4-Cyclopropylcarbamoyl-phenyl)-1H-benzoimidazol-2-yl]-2-pyridin-4-yl-thiazolidine-3-carboxylic acid benzyl ester] | 99.8
O=C(Nc1ccc(-c2ccc([C@@H]3CCCN3C(=O)OCc3ccccc3)cc2)cc1)C1CC1 (stereo in doubt) [Compound 4026, 2-[4′-(Cyclopropanecarbonyl-amino)-biphenyl-4-yl]-pyrrolidine-1-carboxylic acid benzyl ester] | 47.6
O=C(NC1CC1)c1ccc(-c2ccc3nc([C@@H]4Cc5ccccc5N4C(=O)OCc4ccccc4)[nH]c3c2)cc1 [Compound 4010, (S)-2-[6-(4-Cyclopropylcarbamoyl-phenyl)-1H-benzoimidazol-2-yl]-2,3-dihydro-indole-1-carboxylic acid benzyl ester] | 96.8
